{
  "source": "paper PMC3691600",
  "about": "“Conversion of fatty aldehydes into alk (a/e)nes by in vitro reconstituted cyanobacterial aldehyde-deformylating oxygenase with the cognate electron transfer system” (Biotechnology for Biofuels, 2013)",
  "molecular_target": "FNR (SynPcc7942_0978) (Synechococcus elongatus, UniProt Q31PL1)",
  "sequence (Q31PL1 1-403)": "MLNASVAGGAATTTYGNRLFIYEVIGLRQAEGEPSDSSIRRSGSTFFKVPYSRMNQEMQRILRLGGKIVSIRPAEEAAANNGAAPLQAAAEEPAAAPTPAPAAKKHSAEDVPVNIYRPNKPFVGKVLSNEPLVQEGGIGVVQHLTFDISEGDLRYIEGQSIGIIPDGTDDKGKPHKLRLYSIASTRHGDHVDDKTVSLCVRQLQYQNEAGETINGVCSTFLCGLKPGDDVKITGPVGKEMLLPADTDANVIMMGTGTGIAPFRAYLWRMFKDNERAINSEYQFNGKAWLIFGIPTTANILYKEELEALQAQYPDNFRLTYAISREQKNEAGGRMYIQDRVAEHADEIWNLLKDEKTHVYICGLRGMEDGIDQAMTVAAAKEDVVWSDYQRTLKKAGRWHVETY",
  "test": "UV/vis absorption spectrum of purified enzyme",
  "type": "binding",
  "conditions": "noncovalently bound; as purified; flavin identity inferred from spectrum and FNR homology",
  "data": [
    {"smiles": "Cc1cc2nc3c(=O)[nH]c(=O)nc-3n(C[C@H](O)[C@H](O)[C@H](O)COP(=O)(O)OP(=O)(O)OC[C@H]3O[C@@H](n4cnc5c(N)ncnc54)[C@H](O)[C@@H]3O)c2cc1C", "note": "[FAD]", "values": [
      {"measurement": "UV/vis absorption spectrum of purified enzyme", "result": "demonstrating that FNR is certainly a flavoprotein"}
    ]}
  ]
}
